Measured values published in patent US5206435A, “4-amino-2-cyclopentene-1-methanol” (priority 1988, dated 1993).
Entries after “also recorded” stand apart in the source; their conditions may differ.

Columns and labels:
[1] = system: HIV; assay: anti-HIV activity in MT4 cells; format: cell-based; details: Human immunodeficiency virus 1, average of 10 determinations
Description: (1S,4R)-cis-4-[2-amino-6-(cyclopropylamino)-9H-purin-9-yl]-2-cyclopentene-1-methanol was tested for anti-HIV activity in MT4 cells according to the method described by Averett, D. R., J. Virol.

[2] = system: HIV; assay: activity against HIV infections (general statement)
[3] = system: HBV; assay: activity against HBV infections (general statement); design: species or system hepatitis B virus
[4] = system: bone marrow progenitor cells; assay: toxicity against bone marrow progenitor cells; format: cell-based; details: compared with 3'-azido-3'-deoxythymidine (zidovudine)
[5] = penetration of the blood-brain barrier upon administration; format: in vivo
[6] = system: HBV; assay: anti-HBV activity in the human HBV producer cell line of HepG2, 2.2.15; format: cell-based, hepatitis B virus; details: at 100 μM; HepG2, 2.2.15 cells
Description: The human HBV producer cell line of HepG2,2.2.15, described and characterised by Sells et al., PNAS 84: 1005, 1987 and J.Virol.
To test compounds for anti-HBV activity, monolayer cultures were treated with the test compound: 50-200 μM for ten days. Supernatant media containing extracellular virion DNA (Dane particles) were harvested on days three, six and ten, treated with proteinase K (1 mg/mL) and sodium dodecyl sulfate (1%), and incubated at 50° C. for one hour. DNA was extracted with equal volumes of phenol followed by chloroform and then precipitated by ammonium acetate and propanol. The DNA precipitate was dissolved and collected on nitrocellulose using the procedure of Schleicher and Schuell (S&S, 10 Optical Ave., Keene, N.H. 03431, Publication #700, 1987), and treated as described by Southern, J.Mol.Biol., 98, 503, 1975. […] After precipitation by ammonium acetate and propanol, the intracellular DNA precipitate was dissolved, cut by restriction endonuclease, Hind III, applied to agarose gel and then treated as described by Southern to determine the quantity of replicative intermediate forms. The antiviral effect of the drug was determined by measuring at least a 100-fold reduction of the amount of Dane particles extruded into the culture medium and a similar decrease in the intracellular replicative intermediates.

| Structure (SMILES) | IC50 [1] | activity against HIV infections [2] | activity against HBV infections [3] | toxicity against bone marrow progenitor cells [4] | blood-brain barrier penetration [5] | levels of the compounds or active metabolites in the central nervous system [5] | anti-HBV activity [6] |
| --- | --- | --- | --- | --- | --- | --- | --- |
| Nc1nc(NC2CC2)c2ncn([C@H]3C=C[C@@H](CO)C3)c2n1 [Compound 1, (1S,4R)-cis-4-[2-amino-6-(cyclopropylamino)-9H-purin-9-yl]-2-cyclopentene-1-methanol] | 4 ± 1.4 µM | especially potent activity; also recorded: exceptionally potent activity | especially potent activity; also recorded: exceptionally potent activity | significantly lower toxicity | capable of penetrating the blood-brain barrier | high levels |  |
| CN(c1nc(N)nc2c1ncn2[C@H]1C=C[C@@H](CO)C1)C1CC1 [Compound 3, (1S,4R)-cis-4-[2-amino-6-(N-cyclopropyl-N-methylamino)-9H-purin-9-yl]-2-cyclopentene-1-methanol] |  | especially potent activity | especially potent activity |  | capable of penetrating the blood-brain barrier | high levels | potent anti-HBV activity |
